Experimental data from patent US20160298129A1, “ALS INHIBITOR HERBICIDE TOLERANT MUTANT PLANTS” (BAYER CROPSCIENCE NV, priority 2013, published 2016).
Substitutions are numbered along the chain they refer to. In names and notes the source's numbering stands.

B1: D376E: AHAS protein with glutamic acid instead of aspartic acid at position 376 of SEQ ID NO: 10 (protein, listed as Arabidopsis thaliana)
chain: MAAATTTTTTSSSISFSTKPSPSSSKSPLPISRFSLPFSLNPNKSSSSSRRRGIKSSSPSSISAVLNTTTNVTTTPSPTKPTKPETFISRFAPDQPRKGADILVEALERQGVETVFAYPGGASMEIHQALTRSSSIRNVLPRHEQGGVFAAEGYARSSGKPGICIATSGPGATNLVSGLADALLDSVPLVAITGQVPRRMIGTDAFQETPIVEVTRSITKHNYLVMDVEDIPRIIEEAFFLATSGRPGPVLVDVPKDIQQQLAIPNWEQAMRLPGYMSRMPKPPEDSHLEQIVRLISESKKPVLYVGGGCLNSSDELGRFVELTGIPVASTLMGLGSYPCDDELSLHMLGMHGTVYANYAVEHSDLLLAFGVRFDERVTGKLEAFASRAKIVHIDIDSAEIGKNKTPHVSVCGDVKLALQGMNKVLENRAEELKLDFGVWRNELNVQKQKFPLSFKTFGEAIPPQYAIKVLDELTDGKAIISTGVGQHQMWAAQFYNYKKPRQWLSSGGLGAMGFGLPAAIGASVANPDAIVVDIDGDGSFIMNVQELATIRVENLPVKVLLLNNQHLGMVMQWQDRFYKANRAHTFLGDPAQEDEIFPNMLLFAAACGIPAARVTKKADLREAIQTMLDTPGPYLLDVICPHQEHVLPMIPSGGTFNDVITEGDGRIKY
B2: W574L: AHAS protein with leucine instead of tryptophan at position 574 of SEQ ID NO: 10 (protein, listed as Arabidopsis thaliana)
chain: B1 chain with E376D, W574L
B3: P197S: AHAS protein with serine instead of proline at position 197 of SEQ ID NO: 10 (protein, listed as Arabidopsis thaliana)
chain: B1 chain with P197S, E376D

Legend:
AHAS P197S-D376E-W574L = AHAS P197S-D376E-W574L (Arabidopsis thaliana, UniProt P17597, D376E/E575Q/P197S/W574L); experiment: biochemical; conditions: for Resistance Factor / pI50: AHAS P197S-D376E-W574L
Experimental: (§1) Bacteria are grown at 37° C. in LB-medium containing 100 mg/l carbenicillin and 25 mg/l canamycin, induced with 1 mM isopropyl-β-D-thiogalactopyranoside at an OD600 of 0.6, cultivated for 16 hours at 18° C. and harvested by, e.g., centrifugation. Bacterial pellets are resuspended in 100 mM sodium phosphate buffer pH 7.0 containing 0.1 mM thiamine-pyrophosphate, 1 mM MgCl2, and 1 μM FAD at a concentration of 1 gram wet weight per 25 ml of buffer and disrupted by, e.g., sonification. The crude protein extract obtained after centrifugation is used for ALS activity measurements.
(§2) ALS protein can be extracted from leaves or tissue cultures, such as B. napus or B. juncea leaves, or B. napus or B. juncea tissue cultures as described by Ray (Plant Physiol, 1984, 75:827-831). An ALS assays can be carried out in 96-well microtiter plates using a modification of the procedure described by Ray (1984): The reaction mixture contains 20 mM potassium phosphate buffer pH 7.0, 20 mM sodium pyruvate, 0.45 mM thiamine-pyrophosphate, 0.45 mM MgCl2, 9 μM FAD. ALS enzyme and various concentrations of ALS inhibitors can be mixed in a final volume of 90 μl Assays can be initiated by adding enzyme and the assays can be terminated after 75 min incubation at 30° C. by the addition of 40 μl 0.5 M H2SO4.

AHAS WT [1] = target: AHAS WT (Arabidopsis thaliana, UniProt P17597, E575Q); experiment: biochemical; conditions: AHAS WT
Experimental: as §1, §2

AHAS P197S-D376E = AHAS P197S-D376E (Arabidopsis thaliana, UniProt P17597, D376E/E575Q/P197S); experiment: biochemical; conditions: for Resistance Factor / pI50: AHAS P197S-D376E
Experimental: as §1, §2

AHAS D376E-W574L = AHAS D376E-W574L (Arabidopsis thaliana, UniProt P17597, D376E/E575Q/W574L); experiment: biochemical; conditions: for Resistance Factor / pI50: AHAS D376E-W574L
Experimental: as §1, §2

AHAS P197S-W574L = AHAS P197S-W574L (Arabidopsis thaliana, UniProt P17597, E575Q/P197S/W574L); experiment: biochemical; conditions: for Resistance Factor / pI50: AHAS P197S-W574L
Experimental: as §1, §2

AHAS D376E = AHAS D376E (Arabidopsis thaliana, UniProt P17597, D376E/E575Q); experiment: biochemical; conditions: for Resistance Factor / pI50: AHAS D376E
Experimental: as §1, §2

AHAS P197S = AHAS P197S (Arabidopsis thaliana, UniProt P17597, E575Q/P197S); format: biochemical
Experimental: as §1, §2

AHAS W574L = AHAS W574L (Arabidopsis thaliana, UniProt P17597, E575Q/W574L); format: biochemical
Experimental: as §1, §2

AHAS WT [2] = target: AHAS WT (Arabidopsis thaliana, UniProt P17597); experiment: biochemical
Experimental: as §1, §2

[3] = test system: WT tissues (hypocotyl derived callus); experiment: Callus culture on Foramsulfuron selection medium; format: cell-based, Brassica napus; conditions: 250 nM in M-338 [H76] medium
Experimental: Five day old seedlings were used for the preparation of hypocotyl segments 7-10 mm in length. Hypocotyl segments were transferred to 14 cm Petri plates containing 75 ml of M-338 [H76] callus induction medium (25 explants/plate). M-338 [H76] medium is MS salts and vitamins (Murashige and Skoog, 1962), 20 g/l sucrose, 0.5 g/l MES, 0.5 g/l adenine sulphate, 5 mg/l silver nitrate, 0.5 mg/l 2,4-D, 0.2 mg/l kinetin and solidified with 5.5 g/l agarose (pH 5.7). Dishes were sealed and cultured at 24° C. with standard light conditions (16 h/day). After 3 weeks, calli developing at the ends of the explants were transferred to fresh M-338 [H76] plates (25 calli/plate). Calli were subcultured to fresh medium every 3 weeks (larger calli cut into two pieces).
Hypocotyl derived callus (9 weeks old) was used for the selection of herbicide resistant mutants. […] Dishes were cultured at 24° C. with standard light conditions (16 h/day). After 3 weeks, the calli were divided into 2 pieces each and replated on M-338 [H76] medium containing 1.0 μM Foramsulfuron. Further increases in Foramsulfuron concentration (e.g. 1.5 μM, 2.0 μM, 2.5 μM, 3.0 μM or higher) were made each subculture until rapidly growing green (resistant) calli could clearly be identified from the brown non-resistant tissues.

[4] = test system: oilseed rape homozygous for HETO132 and HETO134 (132-134); experiment: Field herbicide tolerance, visible phytotoxicity (ALS I W574L, ALS III P197S-W574L); format: in vivo, Brassica napus; conditions: gai/ha: imazamox 40, bispyribac-sodium 50, propoxycarbazone-sodium 70, mesosulfuron-methyl 60, pyroxsulam 12.5 + cloquintocet-mexyl 37.5, each + rapeseed oil methylated 366.5
Description: (§3) Seeds of spring oilseed rape homozygous for HETO139 and HETO134 were sown in a field according to typical practical agricultural methods together with seeds homozygous for HETO134 and HETO133 (comprising a W574L mutation on ALS III, which were obtained in the same way as HETO134), and with seeds homozygous for HETO134 and HETO132 (comprising a P197S and a W574L mutation on ALS III, which were obtained in essentially the same way as HETO139). Several ALS inhibitor herbicides were applied to the oilseed rape plants by using specific spray equipment for small plot applications.

[5] = test system: wild-type (WT) oilseed rape; experiment: Field herbicide tolerance, visible phytotoxicity; format: in vivo, Brassica napus; conditions: gai/ha: imazamox 40, bispyribac-sodium 50, propoxycarbazone-sodium 70, mesosulfuron-methyl 60, pyroxsulam 12.5 + cloquintocet-mexyl 37.5, each + rapeseed oil methylated 366.5
[6] = test system: oilseed rape homozygous for HETO139 and HETO134 (139-134); experiment: Field herbicide tolerance, visible phytotoxicity (ALS I W574L, ALS III P197S-D376E); format: in vivo, Brassica napus; conditions: gai/ha: imazamox 40, bispyribac-sodium 50, propoxycarbazone-sodium 70, mesosulfuron-methyl 60, pyroxsulam 12.5 + cloquintocet-mexyl 37.5, each + rapeseed oil methylated 366.5
Description: as §3

[7] = test system: oilseed rape homozygous for HETO133 and HETO134 (133-134); experiment: Field herbicide tolerance, visible phytotoxicity (ALS I W574L, ALS III W574L); format: in vivo, Brassica napus; conditions: gai/ha: imazamox 40, bispyribac-sodium 50, propoxycarbazone-sodium 70, mesosulfuron-methyl 60, pyroxsulam 12.5 + cloquintocet-mexyl 37.5, each + rapeseed oil methylated 366.5
Description: as §3

AHAS enzymatic activity = experiment: Kinetic parameters of enzymatic activity of AHAS mutants; format: biochemical
Experimental: The ALS inhibitor sensitivity and kinetic parameters of AHAS proteins comprising the P197S mutation, the W574L mutation, the D376E mutation, and combinations thereof in one protein, were determined essentially as described in WO 2013/127766.

Chain of AHAS P197S-D376E (P17597 56-670 P197S/D376E/E575Q): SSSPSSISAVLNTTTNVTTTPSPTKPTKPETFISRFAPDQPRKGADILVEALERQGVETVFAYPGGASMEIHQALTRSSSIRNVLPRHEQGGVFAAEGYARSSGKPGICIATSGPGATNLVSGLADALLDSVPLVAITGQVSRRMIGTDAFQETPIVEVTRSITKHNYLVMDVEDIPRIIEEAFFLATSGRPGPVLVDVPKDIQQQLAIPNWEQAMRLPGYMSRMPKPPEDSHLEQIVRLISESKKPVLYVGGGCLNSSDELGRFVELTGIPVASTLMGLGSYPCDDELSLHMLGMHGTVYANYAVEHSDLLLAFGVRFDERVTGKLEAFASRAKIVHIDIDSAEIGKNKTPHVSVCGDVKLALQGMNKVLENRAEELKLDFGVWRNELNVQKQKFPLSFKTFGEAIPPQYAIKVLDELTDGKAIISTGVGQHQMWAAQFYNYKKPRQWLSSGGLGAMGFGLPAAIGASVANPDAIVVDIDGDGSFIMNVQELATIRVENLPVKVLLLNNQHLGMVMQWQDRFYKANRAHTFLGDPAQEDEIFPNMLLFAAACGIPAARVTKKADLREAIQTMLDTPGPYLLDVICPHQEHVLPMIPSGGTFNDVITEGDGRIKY
Chain of AHAS WT (Arabidopsis thaliana, UniProt P17597) (P17597 56-670 E575Q): as the sequence (P17597 56-670 P197S/D376E/E575Q) above, with S142P, E321D counted along it
Chain of AHAS D376E-W574L (P17597 56-670 D376E/W574L/E575Q): as the sequence (P17597 56-670 P197S/D376E/E575Q) above, with S142P, W519L counted along it
Chain of AHAS P197S (P17597 56-670 P197S/E575Q): as the sequence (P17597 56-670 P197S/D376E/E575Q) above, with E321D counted along it
Chain of AHAS P197S-D376E-W574L (P17597 56-670 P197S/D376E/W574L/E575Q): as the sequence (P17597 56-670 P197S/D376E/E575Q) above, with W519L counted along it
Chain of AHAS P197S-W574L (P17597 56-670 P197S/W574L/E575Q): as the sequence (P17597 56-670 P197S/D376E/E575Q) above, with E321D, W519L counted along it
Chain of AHAS W574L (P17597 56-670 W574L/E575Q): as the sequence (P17597 56-670 P197S/D376E/E575Q) above, with S142P, E321D, W519L counted along it
Chain of AHAS WT (Arabidopsis thaliana, UniProt P17597, E575Q) (P17597 56-670 E575Q): as the sequence (P17597 56-670 P197S/D376E/E575Q) above, with S142P, E321D counted along it

Molecule | Resistance Factor (AHAS P197S-D376E-W574L) | Resistance Factor (AHAS P197S-D376E) | Resistance Factor (AHAS D376E-W574L) | Resistance Factor (AHAS P197S-W574L) | Resistance Factor (AHAS D376E) | Resistance Factor (AHAS P197S) | Resistance Factor (AHAS W574L) | IC50 (AHAS P197S-D376E-W574L) [µM] | IC50 (AHAS P197S-D376E) [µM] | IC50 (AHAS D376E-W574L) [µM] | IC50 (AHAS P197S-W574L) [µM] | IC50 (AHAS D376E) [µM] | IC50 (AHAS WT [2]) [µM] | Km (AHAS enzymatic activity) [mM] | Vmax (AHAS enzymatic activity) [deltaOD550/min mg protein] | relative Vmax (AHAS enzymatic activity) | further results
COc1ncc(F)c2nc(S(=O)(=O)Nc3c(F)cccc3F)nn12 [Florasulam, florasulam] | >6918 | 2754 | >6918 | >6918 | 55 | 28 | 1738 |  |  |  |  |  |  |  |  |  | pI50 (AHAS P197S-D376E-W574L): <4; pI50 (AHAS WT [1]): 7.8; pI50 (AHAS P197S-D376E): 4.4; pI50 (AHAS D376E-W574L): <4; pI50 (AHAS P197S-W574L): <4; pI50 (AHAS D376E): 6.1; pI50 (AHAS P197S): 6.4; pI50 (AHAS W574L): 4.6
COc1cc(OC)nc(NC(=O)NS(=O)(=O)c2cc(NC=O)ccc2C(=O)N(C)C)n1 [Foramsulfuron, foramsulfuron] | >11748 | >11748 | >11748 | >11748 | 3715 | 12 | 5888 | > 100 | > 100 | > 100 | > 100 | 31.6 | 0.00794 |  |  |  | inhibition of callus tissues [3]: clearly inhibitory
COc1cc(OC)nc(NC(=O)NS(=O)(=O)c2ncccc2C(=O)N(C)C)n1 [Nicosulfuron, nicosulfuron] | >607 | >607 | >607 | >607 | >607 | 6 | >607 | > 100 | > 100 | > 100 | > 100 | > 100 | 0.158 |  |  |  | 
COc1cc(OC)n2nc(NS(=O)(=O)c3c(C(F)(F)F)ccnc3OC)nc2n1 [Pyroxsulam, pyroxsulam] | >41368 | >41368 | >41368 | >41368 | 656 | 261 | >41368 |  |  |  |  |  |  |  |  |  | pI50 (AHAS P197S-D376E-W574L): <4; pI50 (AHAS WT [1]): 8.6; pI50 (AHAS P197S-D376E): <4; pI50 (AHAS D376E-W574L): <4; pI50 (AHAS P197S-W574L): <4; pI50 (AHAS D376E): 5.8; Percentage phytotoxicity ([4]; 9 DAA): 13.3%; Percentage phytotoxicity ([4]; 16 DAA): 16%; Percentage phytotoxicity ([4]; 24 DAA): 5%; Percentage phytotoxicity ([5]; 9 DAA): 76.7%; Percentage phytotoxicity ([5]; 16 DAA): 98%; Percentage phytotoxicity ([5]; 24 DAA): 98%; pI50 (AHAS P197S): 6.2; pI50 (AHAS W574L): <4; Percentage phytotoxicity ([6]; 9 DAA): 10.7%; Percentage phytotoxicity ([6]; 16 DAA): 16%; Percentage phytotoxicity ([6]; 24 DAA): 10.7%; Percentage phytotoxicity ([7]; 9 DAA): 13.3%; Percentage phytotoxicity ([7]; 16 DAA): 17%; Percentage phytotoxicity ([7]; 24 DAA): 15%
CCS(=O)(=O)c1cccnc1S(=O)(=O)NC(=O)Nc1nc(OC)cc(OC)n1 [Rimsulfuron, rimsulfuron] | >4466 | >4466 | >4466 | >4466 | 56 | 18 | 447 | > 100 | > 100 | > 100 | > 100 | 1.26 | 0.02 |  |  |  | 
CCS(=O)(=O)c1nc2ccccn2c1S(=O)(=O)NC(=O)Nc1nc(OC)cc(OC)n1 [Sulfosulfuron, sulfosulfuron] | >4641 | >4641 | >4641 | >4641 | 1166 | 1848 | >4641 | > 100 | > 100 | > 100 | > 100 | 25.1 | 0.02 |  |  |  | 
B1 |  |  |  |  |  |  |  |  |  |  |  |  |  | 1.4 | 103.0 | 2.7 | 
B2 |  |  |  |  |  |  |  |  |  |  |  |  |  | 7 | 54.4 | 1.4 | 
B3 |  |  |  |  |  |  |  |  |  |  |  |  |  | 5.5 | 50.0 | 1.3 | 
